Assay results taken from publication PMC12006171, “Marsupial cathelicidins: characterization, antimicrobial activity and evolution in this unique mammalian lineage” (Frontiers in Immunology, 2025).
Read-outs that look alike come from different tables or passages of the source.

Assays:
[1] = system: six bacteria (S. aureus, E. coli, P. aeruginosa; ATCC and clinical isolate); assay type: cell-based; conditions: synthesized mature peptide
Experimental: Antimicrobial testing of 78 cathelicidin MPs was performed in two phases as outlined in Figure 1 . In phase I, 40 peptides (27 extant and 13 ancestral) were selected for testing based on rank (outlined above) and similarity to published marsupial cathelicidins with known antimicrobial activity ([33], [41]–[43]). These peptides were tested against nine bacteria (Staphylococcus aureus ATCC 29213 and clinical isolate, Escherichia coli ATCC 25922 and clinical isolate, Pseudomonas aeruginosa ATCC 27853 and clinical isolate, Streptococcus agalactiae ATCC 12386 and clinical isolate, Streptococcus pneumoniae ATCC 49619) and three fungi (Candida krusei ATCC 6258, Candida parapsilosis ATCC 22019, and Candida albicans clinical isolate). Details regarding these strains are available in Supplementary Table 4 . The antimicrobial activity of cathelicidins was determined as the minimum inhibitory concentration (MIC), which was the lowest concentration of cathelicidin that prevented visible bacterial or fungal growth, relative to the negative control. […] Minimum bactericidal concentration (MBC) and/or minimum fungicidal concentration (MFC) was conducted to determine microbicidal versus static action. Activity against S. aureus ATCC, E. coli ATCC, and Pseudomonas aeruginosa ATCC 27853 was examined in the presence of divalent cations to determine the impact of inhibitors.
In phase II, the remaining 38 peptides (37 extant and one ancestral) were tested against six bacteria (S. aureus ATCC and clinical isolate, E. coli ATCC and clinical isolate, and P. aeruginosa ATCC and clinical isolate). […] No further testing on phase II peptides was performed. Detailed methods for all assays are provided in subsequent sections.
Antimicrobial activity was determined using a broth microdilution susceptibility assay in 96 well polypropylene plates according to Clinical Laboratory Standards Institute guidelines M07-A and M26A as described previously ([33], [42], [43]). The bacterial and fungal isolates from humans and animals used in this study are outlined in Supplementary Table 4 . Only yeasts were included in the panel of fungi as they have been used in the susceptibility testing of eutherian ([3], [81]–[83]) and other marsupial cathelicidins previously ([33], [42], [43]). Cathelicidin mature peptides were solubilized in DMSO and serially diluted in duplicate from 128-0.25μg/mL in a final volume of 100µL. For bacteria, cathelicidins were diluted in Mueller Hinton Broth (MHB) with or without 10% lysed horse blood, and with (MH II B) or without (MHB) calcium and magnesium cations. For fungi, cathelicidins were diluted in Roswell Park Memorial Institute medium (RPMI)-1640 MOPS. Ampicillin or tetracycline were included as a positive control for Gram-positive and -negative bacteria respectively, while amphotericin B was used for fungi. A media-only negative control and growth control (no cathelicidin) were also included on each plate. Bacteria were sub-cultured on Muller Hinton agar (MHA) or sheep blood agar (BA), and fungi on Sabouraud dextrose agar (SAB), 20–24 hours prior to the test. Colonies were suspended in saline, the concentration adjusted to a 0.5 McFarland standard, and then diluted in media to a concentration of 1.0 x 10^6 cells/mL. Then, 100μL was added to each well of the cathelicidin dilution plate, giving a final inoculum density of 5 x 10^5 CFU/mL and cathelicidin concentration of 64-0.125μg/mL. Colony counts were performed on MHA/BA/SAB to confirm inoculum density. All plates were incubated at 35°C for 20–24 hours, depending on the strain.
Colonies were counted and compared to the colony count of the starting inoculum.

[2] = system: three fungi (Candida krusei, Candida parapsilosis, Candida albicans); parameters: method as in 4 sources, ref Peel et al 2016 ||| ref Peel et al 2021 ||| ref Wang et al 2011 ||| ref Peel et al 2017; conditions: cited from earlier work
[3] = system: six bacteria (S. aureus, E. coli, P. aeruginosa; ATCC and clinical isolate); parameters: method as in 4 sources, ref Peel et al 2016 ||| ref Peel et al 2021 ||| ref Wang et al 2011 ||| ref Peel et al 2017; conditions: cited from earlier work
[4] = broth microdilution screening, phase I or II, Y/N summary over the bacteria tested
[5] = mature peptide, Y/N summary from earlier study, ref Wang et al 2011
[6] = mature peptide, Y/N summary from earlier study, ref Peel et al 2017
[7] = mature peptide, Y/N summary from earlier study, ref Peel et al 2016
[8] = mature peptide, Y/N summary from earlier study, ref Peel et al 2021
[9] = mature peptide (MP), Y/N summary, ref Peel et al 2017

Sequence | Antibacterial (MIC <64ug/mL) [1, 4] | Antifungal (MIC <64ug/mL) [2, 9] | Antibacterial (MIC <64ug/mL) [3, 9] | further results
FRKLRNIFSRGRDDKE [MagiCath4] | N (Antibacterial (MIC <64ug/mL)) | – | – | –
GEKVKTRFIAAIKKLIDTFLP [MaruCath8] | N (Antibacterial (MIC <64ug/mL)) | – | – | –
GSTSSPTVRF [LahiCath2] | N (Antibacterial (MIC <64ug/mL)) | – | – | –
KEKATKFRNSIRRRVNGLKIGAADRVPGHYLA [MagiCath5] | N (Antibacterial (MIC <64ug/mL)) | – | – | –
KKFLKSVIKEAISKGIPKGIQAVNKLIKEKKEGQKHKP [MAP2, marsupial ancestral peptide, predicted by ANCESCON and GASP, synthesized] | – | – | – | Antibacterial (MIC <64ug/mL) ([1]; antimicrobial screening Phase II, Y/N summary over bacteria tested, broth microdilution): N (Antibacterial (MIC <64ug/mL))
KRGFGDSVKKTGTKLKNSIRRRVTGLTVGAAVLRPG [MaruCath1p] | N (Antibacterial (MIC <64ug/mL)) | – | – | –
KRGLWESLKRKATKLGDDIRNTLRNFKIKFPVPRQG [MaeuCath2*] | – | – | – | Antifungal (MIC <64ug/mL) [2, 5]: Y (Wang et al 2011) (Antifungal (MIC <64ug/mL)); Antibacterial (MIC <64ug/mL) [3, 5]: Y (Wang et al 2011) (Antibacterial (MIC <64ug/mL))
KRGLWESLKRKVTKLGDDIRNTLRNFKIKFPVPRQG [MaeuCath7] | – | – | – | Antifungal (MIC <64ug/mL) [2, 6]: N (Peel et al 2017) (Antifungal (MIC <64ug/mL)); Antibacterial (MIC <64ug/mL) [3, 6]: Y (Peel et al 2017) (Antibacterial (MIC <64ug/mL))
KRMGIFHLFWAGLRKLGNLIKNKIQQGIENFLG [SahaCath3] | – | – | – | Antifungal (MIC <64ug/mL) [2, 7]: Y (Peel et al 2016) (Antifungal (MIC <64ug/mL)); Antibacterial (MIC <64ug/mL) [3, 7]: N (Peel et al 2016) (Antibacterial (MIC <64ug/mL))
KVKRGLWDTVKRKVTNLRNSIRNRATNFKLGG [MagiCath1] | N (Antibacterial (MIC <64ug/mL)) | – | – | –
LFPRRRKGSNKPGKYSVLFAAKPSVGKTPHILTI [PhciCath1] | – | – | – | Antifungal (MIC <64ug/mL) [2, 8]: N (Peel et al 2021) (Antifungal (MIC <64ug/mL)); Antibacterial (MIC <64ug/mL) [3, 8]: N (Peel et al 2021) (Antibacterial (MIC <64ug/mL))
LKKFFSSMIKKAVSKGISKGISKGIQEVDKAIKQKK [ModoCath2] | – | N (Peel et al 2017) (Antifungal (MIC <64ug/mL)) | N (Peel et al 2017) (Antibacterial (MIC <64ug/mL)) | –
LKKIFGSIVKKAVSKGVAEGLKAVDEARKAEKKGKK [ModoCath1] | – | N (Peel et al 2017) (Antifungal (MIC <64ug/mL)) | N (Peel et al 2017) (Antibacterial (MIC <64ug/mL)) | –
LYRRRKYPTSYYLLLGGKGNNRGYKPHIIYV [ModoCath11] | – | N (Peel et al 2017) (Antifungal (MIC <64ug/mL)) | N (Peel et al 2017) (Antibacterial (MIC <64ug/mL)) | –
NFIHQKYRILLDKYRKLQDIFSGSGDKV [PhciCath2] | – | – | – | Antifungal (MIC <64ug/mL) [2, 8]: N (Peel et al 2021) (Antifungal (MIC <64ug/mL)); Antibacterial (MIC <64ug/mL) [3, 8]: N (Peel et al 2021) (Antibacterial (MIC <64ug/mL))
PGRKKGSKRHKPGSYSVIALGKPGVKKAPYMEAL [MagiCath2] | N (Antibacterial (MIC <64ug/mL)) | – | – | –
PGRKKGSKRHKPGSYSVIALGKPGVKKSPYMEAL [MaeuCath8] | – | – | – | Antifungal (MIC <64ug/mL) [2, 6]: N (Peel et al 2017) (Antifungal (MIC <64ug/mL)); Antibacterial (MIC <64ug/mL) [3, 6]: N (Peel et al 2017) (Antibacterial (MIC <64ug/mL))
PIRTKRRWKLIKKGGKIVKDLLTKNNIIILPGGNE [TaacCath1] | – | N (Peel et al 2017) (Antifungal (MIC <64ug/mL)) | Y (Peel et al 2017) (Antibacterial (MIC <64ug/mL)) | –
PKQKNGSKNRRFRIGGYTMISMKQPRVQKAPYMEAL [ModoCath9] | – | N (Peel et al 2017) (Antifungal (MIC <64ug/mL)) | N (Peel et al 2017) (Antibacterial (MIC <64ug/mL)) | –
PPEPLRFKRIRCLNGRKCNYHNLLLTIVPHWRIPKGK [PhciCath3] | – | – | – | Antifungal (MIC <64ug/mL) [2, 8]: N (Peel et al 2021) (Antifungal (MIC <64ug/mL)); Antibacterial (MIC <64ug/mL) [3, 8]: N (Peel et al 2021) (Antibacterial (MIC <64ug/mL))
PRRKKGPKKDNYKPGGYSLIALGKPDIQKAPYMEAL [MaruCath7] | N (Antibacterial (MIC <64ug/mL)) | – | – | –
RTFGNLIHQKYRKLLEAYRKLRDIFSG [ModoCath5] | – | N (Peel et al 2017) (Antifungal (MIC <64ug/mL)) | N (Peel et al 2017) (Antibacterial (MIC <64ug/mL)) | –
SKTKRRSLLKRLGDGIRGFWNGFRGRK [ModoCath4] | – | Y (Peel et al 2017) (Antifungal (MIC <64ug/mL)) | Y (Peel et al 2017) (Antibacterial (MIC <64ug/mL)) | –
STILEDPGKIRERRDIGEEPIQKKQKMYRDQMQ [SahaCath7] | – | – | – | Antifungal (MIC <64ug/mL) [2, 8]: N (Peel et al 2021) (Antifungal (MIC <64ug/mL)); Antibacterial (MIC <64ug/mL) [3, 8]: N (Peel et al 2021) (Antibacterial (MIC <64ug/mL))
SVPGTRAQSGTTSPGSGSRRVARSRG [OranCath6] | – | N (Peel et al 2017) (Antifungal (MIC <64ug/mL)) | N (Peel et al 2017) (Antibacterial (MIC <64ug/mL)) | –
TFKRKNGSRKNGHRPGGYSLIALGNKKVLKAPYMESI [SahaCath2] | – | – | – | Antifungal (MIC <64ug/mL) [2, 7]: N (Peel et al 2016) (Antifungal (MIC <64ug/mL)); Antibacterial (MIC <64ug/mL) [3, 7]: N (Peel et al 2016) (Antibacterial (MIC <64ug/mL))
TLTQAHCPYFLRKKPEGEMATGGRPQETPKLLGAL [ModoCath10] | – | N (Peel et al 2017) (Antifungal (MIC <64ug/mL)) | N (Peel et al 2017) (Antibacterial (MIC <64ug/mL)) | –
TPELFRSRRSPLPGRKKGSKRPKPGSYSVIALGKPGLKKAPYMEAL [LahiCath1] | N (Antibacterial (MIC <64ug/mL)) | – | – | –
VSESISHGIPKAISAVNKLIKKKKKGATTPRVK [ModoCath6] | – | N (Peel et al 2017) (Antifungal (MIC <64ug/mL)) | N (Peel et al 2017) (Antibacterial (MIC <64ug/mL)) | –
